Legend:
Type in all cases: in vivo
[1] = test system: Botryotinia fuckeliana (Botrytis cinerea); experiment: Botryotinia fuckeliana (Botrytis cinerea) / tomato / preventative (Botrytis on tomato); details: tomato plants cv. Roter Gnom, inoculated two days after application, vs untreated control, read-out: disease control
Protocol: (§1) Botryotinia fuckeliana (Botrytis cinerea)/Tomato/Preventative (Botrytis on Tomato) 4-week old tomato plants cv. Roter Gnom are treated with the formulated test compound in a spray chamber. The test plants are inoculated by spraying them with a spore suspension two days after application. The inoculated test plants are incubated at 20° C. and 95% rh in a greenhouse and the percentage leaf area covered by disease is assessed when an appropriate level of disease appears on untreated check plants (5-6 days after application).

[2] = test system: Mycosphaerella arachidis (Cercospora arachidicola); experiment: Mycosphaerella arachidis (Cercospora arachidicola) / peanut / preventative; details: peanut plants cv. Georgia Green, inoculated one day after application, vs untreated control, read-out: disease control
Protocol: Mycosphaerella arachidis (Cercospora arachidicola)/Peanut/Preventative 3-week old peanut plants cv. Georgia Green are treated with the formulated test compound in a spray chamber. The test plants are inoculated by spraying them with a spore suspension on their lower leaf surface one day after application. After an incubation period of 4 days under a plastic hood at 23° C. and 100% rh, the test plants are kept at 23° C./20° C. (day/night) and 70% rh in a greenhouse. The percentage leaf area covered by disease is assessed when an appropriate level of disease appears on untreated check plants (12-14 days after application).

[3] = test system: Alternaria solani; experiment: Alternaria solani / tomato / preventative (Alternaria on tomato); details: tomato plants cv. Roter Gnom, inoculated two days after application, vs untreated control, read-out: disease control
Protocol: as §1, with “Alternaria solani/Tomato/Preventative (Alternaria” for “Botryotinia fuckeliana (Botrytis cinerea)/Tomato/Preventative (Botrytis”, “22/18°” for “20°”, “C. (day/night)” for “C.”, “(5-7” for “(5-6”

[4] = test system: Plasmopara viticola; experiment: Plasmopara viticola / grape / preventative (grape downy mildew); details: grape seedlings cv. Gutedel, inoculated one day after application, vs untreated control, read-out: disease control
Protocol: Plasmopara viticola/Grape/Preventative (Grape Downy Mildew)
5-week old grape seedlings cv. Gutedel are treated with the formulated test compound in a spray chamber. The test plants are inoculated by spraying a sporangia suspension on their lower leaf surface one day after application. The inoculated test plants are incubated at 22° C. and 100% rh in a greenhouse and the percentage leaf area covered by disease is assessed when an appropriate level of disease appears on untreated check plants (6-8 days after application).

[5] = test system: Pyrenophora teres (Helminthosporium teres); experiment: Pyrenophora teres (Helminthosporium teres) / barley / preventative (net blotch on barley); details: barley plants cv. Regina, inoculated 2 days after application, vs untreated control, read-out: disease control
Protocol: Pyrenophora teres (Helminthosporium teres)/Barley/Preventative (Net Blotch on Barley) 1-week old barley plants cv. Regina are treated with the formulated test compound in a spray chamber. The test plants are inoculated by spraying them with a spore suspension 2 days after application. The inoculated test plants are incubated at 20° C. and 95% rh and the percentage leaf area covered by disease is assessed when an appropriate level of disease appears on untreated check plants (5-7 days after application).

[6] = test system: Erysiphe necator (Uncinula necator); experiment: Erysiphe necator (Uncinula necator) / grape / preventative (powdery mildew on grape); details: grape seedlings cv. Gutedel, inoculated 1 day after application, vs untreated control, read-out: disease control
Protocol: Erysiphe necator (Uncinula necator)/Grape/Preventative (Powdery Mildew on Grape) 5-week old grape seedlings cv. Gutedel are treated with the formulated test compound in a spray chamber. The test plants are inoculated by shaking plants infected with grape powdery mildew above them 1 day after application. The inoculated test plants are incubated at 24/22° C. (day/night) and 70% rh under a light regime of 14/10 h (light/dark) and the percentage leaf area covered by disease is assessed when an appropriate level of disease appears on untreated check plants (7-9 days after application).

[7] = test system: Mycosphaerella graminicola (Septoria tritici); experiment: Mycosphaerella graminicola (Septoria tritici) / wheat / preventative (Septoria tritici leaf spot on wheat); details: Zymoseptoria tritici, wheat plants cv. Riband, inoculated one day after application, vs untreated control, read-out: disease control
Protocol: Mycosphaerella graminicola (Septoria tritici)/Wheat/Preventative (Septoria tritici Leaf Spot on Wheat) 2-week old wheat plants cv. Riband are treated with the formulated test compound in a spray chamber. The test plants are inoculated by spraying a spore suspension on them one day after application. After an incubation period of 1 day at 22° C./21° C. (day/night) and 95% rh, the test plants are kept at 22° C./21° C. (day/night) and 70% rh in a greenhouse. The percentage leaf area covered by disease is assessed when an appropriate level of disease appears on untreated check plants (16-19 days after application).

[8] = test system: Phaeosphaeria nodorum (Septoria nodorum); experiment: Phaeosphaeria nodorum (Septoria nodorum) / wheat / leaf disc preventative (glume blotch); details: Parastagonospora nodorum, foliar, wheat leaf segments cv. Kanzler on agar, inoculated 2 days after application, vs untreated control, read-out: disease control
Protocol: Phaeosphaeria nodorum (Septoria nodorum)/Wheat/Leaf Disc Preventative (Glume Blotch) Wheat leaf segments cv. Kanzler are placed on agar in a multiwell plate (24-well format) and sprayed with the formulated test compound diluted in water. The leaf disks are inoculated with a spore suspension of the fungus 2 days after application. The inoculated test leaf disks are incubated at 20° C. and 75% rh under a light regime of 12 h light/12 h darkness in a climate cabinet and the activity of a compound is assessed as percent disease control compared to untreated when an appropriate level of disease damage appears in untreated check leaf disks (5-7 days after application).

Measured: pest or weed control at 200 ppm

c1ccc(-c2cccc(-c3ncc4ccccc4n3)n2)cc1 [2/1]
≥ 80%: [1] | [2]

c1cc(-c2ncc3ccccc3n2)nc(-c2cccc3ccccc23)c1 [2/6]
≥ 80%: [3] | [1] | [2] | [4] | [5]

Clc1ccccc1-c1cccc(-c2ncc3ccccc3n2)n1 [2/13]
≥ 80%: [3] | [1] | [2] | [4]

Brc1ccccc1-c1cccc(-c2ncc3ccccc3n2)n1 [2/26]
≥ 80%: [2] | [4]

CCc1ccccc1-c1cccc(-c2ncc3ccccc3n2)n1 [2/37]
≥ 80%: [3] | [1] | [2] | [4]

Cc1ccc(C)c(-c2cccc(-c3ncc4ccccc4n3)n2)c1 [2/54]
≥ 80%: [3] | [6] | [2] | [4] | [5]

COc1ccc(Cl)cc1-c1cccc(-c2ncc3ccccc3n2)n1 [2/68]
≥ 80%: [3] | [6] | [4]

Cc1ccc(F)c(-c2nc(-c3ncc4ccccc4n3)ccc2C)c1 [3/9]
not listed: [6] | [8]
≥ 80%: all other assays above

Cc1ccc(-c2nc(-c3ncc4ccccc4n3)ccc2C)cc1Cl [3/21]
≥ 80%: [3] | [1] | [6] | [4]

Cc1ccc(F)cc1-c1nc(-c2ncc3ccccc3n2)ccc1C [3/26]
≥ 80%: [3] | [1] | [2] | [4] | [5]

Cc1ccc(-c2ncc3ccccc3n2)nc1-c1cccc(F)c1F [3/38]
not listed: [7] | [8]
≥ 80%: all other assays above

Cc1ccc(-c2ncc3ccccc3n2)nc1-c1ccccc1Cl [3/46]
≥ 80%: [3] | [2] | [4]

COc1ccc(-c2nc(-c3ncc4ccccc4n3)ccc2C)c(C)c1 [3/53]
not listed: [7] | [8]
≥ 80%: all other assays above

COc1ccc(F)c(-c2nc(-c3ncc4ccccc4n3)ccc2C)c1 [3/56]
≥ 80%: [3] | [2] | [4]

Cc1ccc(-c2ncc3ccccc3n2)nc1-c1ccc(Cl)cc1 [3/74]
≥ 80%: [3] | [7] | [4] | [5]

Cc1ccc(-c2ncc3ccccc3n2)nc1-c1ccccc1F [3/82]
≥ 80%: [3] | [7] | [4] | [5]

Cc1ccc(-c2ncc3ccccc3n2)nc1-c1ccc(F)cc1F [3/83]
≥ 80%: [3] | [1] | [7] | [4] | [5]

COc1ccc(-c2nc(-c3ncc4ccccc4n3)ccc2C)cc1C [3/93]
≥ 80%: [3] | [7] | [4] | [5]

Cc1ccc(-c2nc(-c3ncc4ccccc4n3)ccc2C)cc1F [3/94]
≥ 80%: [3] | [1] | [7] | [4] | [5]

Cc1ccc(-c2ncc3ccccc3n2)nc1-c1ccc(F)cc1O [3/101]
≥ 80%: [3] | [1] | [7] | [4] | [5]

Cc1ccc(-c2ncc3ccccc3n2)nc1Oc1ccc(F)cc1 [5/3]
≥ 80%: [2] | [4] | [5]

Cc1ccc(Oc2nc(-c3ncc4ccccc4n3)ccc2C)cc1 [5/17]
≥ 80%: [2] | [4]

Cc1ccc(Cc2cccc(-c3ncc4ccccc4n3)n2)cc1 [6/10]
≥ 80%: [7]

COc1cccc(Cc2cccc(-c3ncc4ccccc4n3)n2)c1 [6/15]
≥ 80%: [7] | [4] | [5]

Clc1ccccc1Cc1cccc(-c2ncc3ccccc3n2)n1 [6/16]
not listed: [2] | [8]
≥ 80%: all other assays above

Clc1ccc(Cc2cccc(-c3ncc4ccccc4n3)n2)cc1 [6/18]
≥ 80%: [3] | [7] | [5]

Cc1ccccc1Cc1cccc(-c2ncc3ccccc3n2)n1 [6/19]
≥ 80%: [3] | [7] | [4] | [5]

Cc1ccc(-c2ncc3ccccc3n2)nc1Cc1cccc(C)c1F [7/7]
≥ 80%: [3] | [6] | [4] | [5]

Cc1ccc(-c2ncc3ccccc3n2)nc1C#CC1CC1 [8/1]
≥ 80%: [3] | [1] | [2] | [4]

Cc1cccc(-c2ncc3ccccc3n2)n1 [10/4]
≥ 80%: [6] | [2]

c1cc(-c2ncc3ccccc3n2)nc(C2CC2)c1 [10/7]
≥ 80%: [1] | [6] | [2] | [4]

Cc1nc(-c2cccc(Cc3ccccc3)n2)nc2ccccc12 [12/6]
≥ 80%: [3] | [6] | [8]

Source: US20120129875A1, “SUBSTITUTED QUINAZOLINES AS FUNGICIDES” (SYNGENTA CROP PROTECTION, LLC, priority 2009, published 2012)
